Results as given in patent publication US12171230B2, “Herbicidal compositions” (Bayer Aktiengesellschaft, priority 2018, dated 2024).
Values joined by “and” are separate entries in the source; they are usually repeats but may differ in a detail not shown here. Identical values can stand only once. Like-named read-outs stand apart in the source and are kept apart here.

What was measured:
Format in all cases: in vivo
Amaranthus palmeri = assay: Post-emergence herbicidal action against Amaranthus palmeri; details: for pest or weed control at 5 g/ha: 5 g of a.i./ha; for pest or weed control at 15 g/ha: 15 g of a.i./ha
How it was run: (§1)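 Greenhouse pot test: three-leaf-stage plants, three weeks from sowing, sprayed with spray-powder or emulsion-concentrate formulations at several dosages (300 to 800 l/ha water). Efficacy rated visually against untreated plants some 3 to 4 weeks later, with Colby formula giving expected combination effect.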

Bidens pilosa = assay: Post-emergence herbicidal action against Bidens pilosa; details: for Herbicidal action: 21 DAT
How it was run: as §1

Brachiaria platyphylla = assay: Post-emergence herbicidal action against Brachiaria platyphylla; details: for Herbicidal action: 21 DAT
Procedure: (§2) When the observed efficacies exceed the formal sum total of the values of the tests with individual applications, they also exceed the expected value according to Colby, which is calculated using the formula below and is likewise regarded as an indication of synergism (cf. S. R. Colby; in Weeds 15 (1967) p. 20 to 22): E^C=A+B−([…])
(§3) Here: • A=efficacy of the active compound (A) in % at an application rate of a g a.i./ha; • B=efficacy of the active compound (B) in % at an application rate of b g a.i./ha; • E^C=expected value of the effect of the combination (A)+(B) in % at the combined application rate a+b g a.i./ha.
(§4) Seeds or rhizome pieces of mono- and dicotyledonous weeds are placed in sandy loam in pots, covered with soil and grown in a greenhouse under good growth conditions (temperature, air humidity, water supply). Three weeks after sowing, the test plants were treated at the three-leaf stage with the compositions according to the invention. The compositions according to the invention formulated as spray powders or as emulsion concentrates were sprayed onto the green plant parts in various dosages with an application rate of 300 to 800 l/ha of water (equivalent). After the test plants have been left to stand in the greenhouse under optimal growth conditions for about 3 to 4 weeks, the action of the preparations is scored visually in comparison to untreated controls. The compositions according to the invention also have good post-emergence herbicidal activity against a broad spectrum of economically important gramineous and broadleaf weeds.

Setaria viridis = assay: Post-emergence herbicidal action against Setaria viridis; details: for Herbicidal action: 21 DAT
Procedure: as §2, §3, §4

Sorghum halepense = assay: Post-emergence herbicidal action against Sorghum halepense; details: for Herbicidal action: 21 DAT
Procedure: as §2, §3, §4

Digitaria sanguinalis = assay: Post-emergence herbicidal action against Digitaria sanguinalis; details: for Herbicidal action: 21 DAT
How it was run: as §1

Echinochloa crus-galli = assay: Post-emergence herbicidal action against Echinochloa crus-galli
Procedure: as §2, §3, §4

Eleusine indica [1] = assay: Post-emergence herbicidal action against Eleusine indica; details: (Z3) post-emergence, g of a.i./ha: 270, 90, 15, 5, 5 + 270, 15 + 90
Text: (§5) The following abbreviations are used in the description and the tables that follow: • g of a.i./ha=grams of active substance (active ingredient) (=100% active compound) per hectare; • The sum total of the effects of the individual applications is reported under E^A; • expected values according to Colby are each reported under E^C.
(§6) The rating period is reported in days after application (DAT).

Eleusine indica [2] = assay: as above; details: 21 DAT
Polygonum convolvulus [3] = assay: Post-emergence herbicidal action against Polygonum convolvulus; details: g of a.i./ha: 90, 30, 45, 45 + 90, 45 + 30
Text: as §5, §6

Kochia scoparia = assay: Post-emergence herbicidal action against Kochia scoparia; details: 21 DAT
Polygonum convolvulus [4] = assay: Post-emergence herbicidal action against Polygonum convolvulus; details: 21 DAT
Panicum maximum = assay: Post-emergence herbicidal action against Panicum maximum; details: 75 g of a.i./ha
Procedure: as §2, §3, §4

Bellis perenne = assay: Post-emergence herbicidal action against Bellis perenne; details: 105 g of a.i./ha
Procedure: as §2, §3
as §4, with “The compositions according to the invention also have good post-emergence herbicidal activity against a broad spectrum of economically important gramineous and broadleaf weeds.” left out

Ephilobium hirsutum = assay: Post-emergence herbicidal action against Ephilobium hirsutum; details: 105 g of a.i./ha
Procedure: as §2, §3
as §4, with “The compositions according to the invention also have good post-emergence herbicidal activity against a broad spectrum of economically important gramineous and broadleaf weeds.” left out

Lamium purpureum = assay: Post-emergence herbicidal action against Lamium purpureum; details: 105 g of a.i./ha, post-emergence
How it was run: as §1

Ranunculus repens = assay: Post-emergence herbicidal action against Ranunculus repens; details: 105 g of a.i./ha
Procedure: as §2, §3
as §4, with “After the test plants have been left to stand in the greenhouse under optimal growth conditions for about 3 to 4 weeks, the action of the preparations is scored visually in comparison to untreated controls.” left out

Viola arvensis = assay: Post-emergence herbicidal action against Viola arvensis; details: 105 g of a.i./ha
Procedure: as §2, §3
as §4, with “After the test plants have been left to stand in the greenhouse under optimal growth conditions for about 3 to 4 weeks, the action of the preparations is scored visually in comparison to untreated controls.” left out

Ipomoea hederacea = assay: Post-emergence herbicidal action against Ipomoea hederacea
Procedure: as §2, §3, §4

Abutilon theophrasti = assay: Post-emergence herbicidal action against Abutilon theophrasti; details: 75 g of a.i./ha
Pharbitis purpurea = assay: Post-emergence herbicidal action against Pharbitis purpurea; details: 21 DAT; 50 g a.i./ha
Procedure: as §2, §3, §4

Poa annua = assay: Post-emergence herbicidal action against Poa annua; details: 28 DAT
How it was run: as §1

Centaurea cyano = assay: Post-emergence herbicidal action against Centaurea cyano; details: 150 g a.i./ha
How it was run: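 Formulations (spray powders or emulsion concentrates) applied at various doses onto foliage using 300 to 800 l/ha water; plants treated at three-leaf stage, three weeks post-sowing in sandy loam under greenhouse conditions.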

Bromus sterilis = assay: Post-emergence herbicidal action against Bromus sterilis; details: 28 DAT; 150 g a.i./ha
Lolium rigidum = assay: Post-emergence herbicidal action against Lolium rigidum; details: 28 DAT; resistant biotype; 50 g a.i./ha
Ipomoea ssp. = assay: Post-emergence herbicidal action against Ipomoea ssp.; details: 45 DAT
Lysimachia nummularia = assay: Post-emergence herbicidal action against Lysimachia nummularia; details: 45 DAT; 720 g a.i./ha
Malva pusilia = assay: Post-emergence herbicidal action against Malva pusilia; details: 42 DAT; 720 g a.i./ha
[5] = Amaranthus palmeri, post-emergence, 504 h, post-emergence, block with (B1.14) Tembotrione, read-out: Herbicidal action 21 DAT [%] against Amaranthus palmeri
[6] = 15 g of a.i./ha, post-emergence, block with (B1.14) Tembotrione
[7] = 45 g of a.i./ha, post-emergence, block with (B1.14) Tembotrione
[8] = Amaranthus palmeri, post-emergence, 504 h, read-out: Herbicidal action 21 DAT [%] against Amaranthus palmeri

COC(=O)[C@H]1C[C@@H](NC(=O)C2(OC)CC(c3cc(Cl)cc(Cl)c3)=NO2)CO1 (relative stereo) [Compound A1, methyl rel-(2R,4R)-4-[[3-(3,5-dichlorophenyl)-5-methoxy-4H-isoxazole-5-carbonyl]amino]tetrahydrofuran-2-carboxylate]
Herbicidal action (Amaranthus palmeri; 21 DAT, (res.), 5 g a.i./ha): 10%
Herbicidal action (Amaranthus palmeri; 21 DAT, (res.), 15 g a.i./ha): 10%
Herbicidal action (Amaranthus palmeri; 21 DAT, (res.), 45 g a.i./ha): 40%
Herbicidal action (Bidens pilosa; 15 g a.i./ha): 35%
Herbicidal action 21 DAT against Bidens pilosa (Bidens pilosa; post-emergence, g of a.i./ha: 90, 30, 15, 15 + 90, 15 + 30): 35%
Herbicidal action (Brachiaria platyphylla; 1.7 g a.i./ha): 50%
Herbicidal action (Setaria viridis; 1.7 g a.i./ha): 15%
Herbicidal action (Sorghum halepense; 1.7 g a.i./ha): 10%
Herbicidal action (Sorghum halepense; 15 g a.i./ha): 35%
Herbicidal action (Digitaria sanguinalis; 1.7 g a.i./ha): 20%
Herbicidal action 21 DAT against Echinochloa crus-galli (Echinochloa crus-galli; (Z3) post-emergence, g of a.i./ha: 270, 30, 5, 5 + 270, 5 + 30): 10%
Herbicidal action 21 DAT against Eleusine indica (Eleusine indica [1]; 5 g of a.i./ha): 45%
Herbicidal action 21 DAT against Eleusine indica (Eleusine indica [1]; 15 g of a.i./ha): 70%
Herbicidal action (Eleusine indica [2]; 1.7 g a.i./ha): 20%
Herbicidal action 21 DAT against Polygonum convolvulus (Polygonum convolvulus [3]): 85%
Herbicidal action (Kochia scoparia; 5 g a.i./ha): 20%
Herbicidal action (Kochia scoparia; 15 g a.i./ha): 45%
Herbicidal action (Polygonum convolvulus [4]; 5 g a.i./ha): 85%
Herbicidal action (Polygonum convolvulus [4]; 45 g a.i./ha): 85%

CS(=O)(=O)c1ccc(C(=O)C2C(=O)CCCC2=O)c([N+](=O)[O-])c1 [(B1.7) Mesotrione, mesotrione, reference compound]
Herbicidal action 28 DAT [%] against Panicum maximum (Panicum maximum): 0%
Herbicidal action 43 DAT [%] against Bellis perenne (Bellis perenne): 0%
Herbicidal action 43 DAT [%] against Ephilobium hirsutum (Ephilobium hirsutum): 0%
Herbicidal action 32 DAT [%] against Lamium purpureum (Lamium purpureum): 0%
Herbicidal action 43 DAT [%] against Ranunculus repens (Ranunculus repens): 0%
Herbicidal action 43 DAT [%] against Viola arvensis (Viola arvensis): 0%
pest or weed control at 5 g/ha (Amaranthus palmeri; Amaranthus palmeri, post-emergence, 504 h, post-emergence, block with (B1.7) Mesotrione, read-out: Herbicidal action 21 DAT [%] against Amaranthus palmeri): 0%
Herbicidal action 21 DAT [%] against Bidens pilosa (Bidens pilosa; 5 g of a.i./ha, post-emergence, block with (B1.7) Mesotrione): 0%
Herbicidal action 21 DAT [%] against Bidens pilosa (Bidens pilosa; 45 g of a.i./ha, post-emergence, block with (B1.7) Mesotrione): 25%

CS(=O)(=O)c1ccc(C(=O)C2C(=O)CCCC2=O)c(Cl)c1COCC(F)(F)F [(B1.14) Tembotrione, tembotrione, reference compound]
pest or weed control at 5 g/ha (Amaranthus palmeri; [5]): 10%
pest or weed control at 15 g/ha (Amaranthus palmeri; [5]): 20%
Herbicidal action 21 DAT [%] against Bidens pilosa (Bidens pilosa; 5 g of a.i./ha, post-emergence, block with (B1.14) Tembotrione): 10%
Herbicidal action 21 DAT [%] against Bidens pilosa (Bidens pilosa; [6]): 25%
Herbicidal action 21 DAT [%] against Bidens pilosa (Bidens pilosa; [7]): 25%
Herbicidal action 21 DAT [%] against Brachiaria platyphylla (Brachiaria platyphylla; [6]): 50%
Herbicidal action 21 DAT [%] against Brachiaria platyphylla (Brachiaria platyphylla; [7]): 50%
Herbicidal action 21 DAT [%] against Setaria viridis (Setaria viridis; 5 g of a.i./ha, post-emergence): 10%
Herbicidal action 21 DAT [%] against Sorghum halepense (Sorghum halepense; 5 g of a.i./ha, post-emergence): 30%
Herbicidal action 21 DAT [%] against Sorghum halepense (Sorghum halepense; 15 g of a.i./ha, post-emergence): 50%
Herbicidal action 37 DAT [%] against Ipomoea hederacea (Ipomoea hederacea; 37.5 g of a.i./ha, post-emergence): 0%

CCS(=O)(=O)c1cccnc1S(=O)(=O)NC(=O)Nc1nc(OC)cc(OC)n1 [(B2.63) Rimsulfuron]
Herbicidal action 37 DAT against Ipomoea hederacea (Ipomoea hederacea; 35 g of a.i./ha): 0%

CS(=O)(=O)c1cc(C(F)(F)F)ccc1C(=O)c1cnoc1C1CC1 [(B4.18) Isoxaflutole]
pest or weed control at 5 g/ha (Amaranthus palmeri; [8]): 10%
pest or weed control at 15 g/ha (Amaranthus palmeri; [8]): 10%
pest or weed control at 45 g/ha (Amaranthus palmeri; Amaranthus palmeri, post-emergence, 504 h, 45 g of a.i./ha, read-out: Herbicidal action 21 DAT [%] against Amaranthus palmeri): 20%
Herbicidal action 21 DAT [%] against Bidens pilosa (Bidens pilosa; 5 g of a.i./ha): 20%
Herbicidal action 21 DAT [%] against Bidens pilosa (Bidens pilosa; 45 g of a.i./ha): 60%
Herbicidal action 21 DAT [%] against Brachiaria platyphylla (Brachiaria platyphylla; 15 g of a.i./ha): 20%
Herbicidal action 21 DAT [%] against Brachiaria platyphylla (Brachiaria platyphylla; 45 g of a.i./ha): 30%
Herbicidal action 21 DAT [%] against Sorghum halepense (Sorghum halepense; 45 g of a.i./ha): 60%
Herbicidal action 21 DAT [%] against Digitaria sanguinalis (Digitaria sanguinalis; 15 g of a.i./ha): 10%
Herbicidal action 21 DAT [%] against Digitaria sanguinalis (Digitaria sanguinalis; 45 g of a.i./ha): 25%
Herbicidal action 37 DAT [%] against Abutilon theophrasti (Abutilon theophrasti): 58%

CP(=O)(O)CCC(N)C(=O)O (stereo not shown) [(B7.4) Glufosinate]
Herbicidal action (Amaranthus palmeri; 21 DAT, 50 g a.i./ha): 50%
Herbicidal action (Amaranthus palmeri; 21 DAT, (res.), 50 g a.i./ha): 35%
Herbicidal action (Amaranthus palmeri; 21 DAT, (res.), 150 g a.i./ha): 70%
Herbicidal action (Bidens pilosa; 50 g a.i./ha): 30%
Herbicidal action (Bidens pilosa; 150 g a.i./ha): 75%
Herbicidal action (Bidens pilosa; 450 g a.i./ha): 75% and 90%
Herbicidal action (Brachiaria platyphylla; 150 g a.i./ha): 70%
Herbicidal action (Setaria viridis; 50 g a.i./ha): 40% and 20%
Herbicidal action (Sorghum halepense; 50 g a.i./ha): 20%
Herbicidal action (Sorghum halepense; 450 g a.i./ha): 5%
Herbicidal action (Digitaria sanguinalis; 450 g a.i./ha): 85%
Herbicidal action (Pharbitis purpurea): 20%
Herbicidal action (Poa annua; 50 g a.i./ha): 20%
Herbicidal action (Poa annua; 150 g a.i./ha): 30%
Herbicidal action (Centaurea cyano; 14 DAT): 60%
Herbicidal action (Centaurea cyano; 28 DAT): 30%
Herbicidal action (Echinochloa crus-galli; 21 DAT, 150 g a.i./ha): 65%
Herbicidal action (Eleusine indica [2]; 50 g a.i./ha): 15%
Herbicidal action (Eleusine indica [2]; 150 g a.i./ha): 35% and 40%
Herbicidal action (Eleusine indica [2]; 450 g a.i./ha): 60%
Herbicidal action (Kochia scoparia; 50 g a.i./ha): 20%
Herbicidal action (Kochia scoparia; 450 g a.i./ha): 80%
Herbicidal action (Polygonum convolvulus [4]; 50 g a.i./ha): 10%
Herbicidal action (Polygonum convolvulus [4]; 150 g a.i./ha): 20%
Herbicidal action (Bromus sterilis): 10%
Herbicidal action (Lolium rigidum): 10%

O=C(O)CNCP(=O)(O)O [(B7.5) Glyphosate (CAS 39600-42-5)]
Herbicidal action (Amaranthus palmeri; 16 DAT, 1440 g a.i./ha): 2%
Herbicidal action (Ipomoea ssp.; 720 g a.i./ha): 0%
Herbicidal action (Ipomoea ssp.; 1440 g a.i./ha): 0%
Herbicidal action (Lysimachia nummularia): 7%
Herbicidal action (Malva pusilia): 0%
